Reference: US20090298805A1, “TOPICAL PYRITHIONE COMPOSITIONS AND METHODS FOR TREATMENT OF NAIL FUNGUS” (priority 2008, published 2009)

Legend:
T. mentagrophytes = experiment: Formulations applied to artificial nail (IMS VITRO-NAILS), zone of inhibition; assay type: cell-based, Trichophyton mentagrophytes
Description: Each test formulation (50 microliters) was pipetted onto sterile ½ inch paper disks and was allowed to air dry. Spore suspensions of Trichophyton mentagrophytes and Trichophyton rubrum, were made using standard microbiological techniques. The resulting suspensions contained approximately 10,000,000 spores per milliliter. Sterile swabs were used to distribute the spore suspensions over the surface of Potato Dextrose Agar plates and one sample disk was placed in the center of each plate. As an additional test, a synthetic nail substrate, IMS VITRO-NAILS, was used to simulate permeation of the active through a human nail. This material is reported to have the wetting properties, thickness and flexibility of human nails. This experiment was conducted in the same manner as first experiment above, except that the formulations were pipetted onto ¾-1 inch squares of VITRO-NAILS and either allowed to dry for 2 days before testing or place directly on the inoculated agar plates while wet.

[1] = test system: Trichophyton mentagrophytes; experiment: Microbiology efficacy test, formulations applied to paper disks, zone of inhibition; assay type: cell-based; details: T. mentagrophytes; 50 microliters on 1/2 inch paper disk, air dried; Potato Dextrose Agar; average results
Description: (§1) Each test formulation (50 microliters) was pipetted onto sterile ½ inch paper disks and was allowed to air dry. Spore suspensions of Trichophyton mentagrophytes and Trichophyton rubrum, were made using standard microbiological techniques. The resulting suspensions contained approximately 10,000,000 spores per milliliter. Sterile swabs were used to distribute the spore suspensions over the surface of Potato Dextrose Agar plates and one sample disk was placed in the center of each plate.

Trichophyton rubrum = experiment: as above; assay type: cell-based; details: T. rubrum; 50 microliters on 1/2 inch paper disk, air dried; Potato Dextrose Agar; average results
Description: as §1

Compound: Cc1cc(C2CCCCC2)n(O)c(=O)c1 [Ciclopirox]
- Zone of Inhibition, Tested Dry (T. mentagrophytes; allowed to dry for 2 days before testing): 8.75 mm
- Zone of Inhibition, Tested Wet (T. mentagrophytes; placed directly on inoculated agar plates while wet): 9 mm
- Zone of Inhibition [1]: 16.0 mm
- Zone of Inhibition (Trichophyton rubrum): 19.0 mm
